Format in all cases: cell-based, human
Data set [1] has as its system GIO (gastrointestinal organoids from HiPSCs). Briefly: MTT cell viability assay of Fresh-GIO and Cryo-GIO. As to conditions: LPS 96 h. As for the experimental part:
We determined GIO viability after the freeze-thaw cycle using a colorimetric assay to evaluate cell metabolic activity with an MTT [3-(4,5-dimethylthiazol-2-yl)-2,5-diphenyltetrazolium bromide] assay, following the manufacturer's instructions for the assay (MilliporeSigma). To perform the reported established MTT assay^40, we grew GIO in 24-well plates and then treated them with or without LPS for 96 h to observe viability and stability. We added lmg/mL of MTT reagent to each −well containing GIO, followed by the 2 h incubation at 37° C. Further, GIO was washed with sterile PBS, followed by the addition of dimethyl sulfoxide (DMSO) in each—well and mixed. After the 10 min incubation, DMSO was absorbed the MTT and run for a plate reader (SpectraMax iD3 Plate Reader, Molecular Devices, San Jose, CA) with the optical absorption density (OD) of 570 nm to determine the amount of MTT binding in the viable cell. This method determined our GIO's viability and stability after the freeze-thaw cycle with or without inflectional susceptible LPS treatment. We calculated the amount of MTT in each well using the following formula: […]

The test system of data set [2] is microbiota-treated GIO bacterial community. Kind of data set: Shotgun metagenomics of fecal microbiota-treated GIO. As to conditions: LPS-treated GIO vs GIO without LPS, with fecal microbiota. Here is the method:
Our UT-GIO and Sus-GIO were treated with fecal microbiota to generate GIO with a complete gut-microbiome system observed in vivo.^38,39 In this context, we first prepared fecal microbiota, purchased from Discovery Life Sciences (DLS). DLS obtains fecal microbiota samples according to their protocol approved by their internal review board (IRB). Then, 100 mg of fecal microbiota was dissolved with sterile PBS and filtered by a 70 μm cell strainer to remove aggregates. Filtered fecal microbiota was further diluted 1:100 using an intestinal expansion medium without penicillin/streptomycin. […] Microbiota-treated GIO with or without LPS and pathogenic/nonpathogenic bacterial culture media sample was analyzed by University of California, San Diego (UCSD) Microbiome Core to obtain metagenomic profiles.
In total, pathogenic and non-pathogenic UT (untreated) and Sus (susceptible)-GIO samples were processed for total DNA extraction and metagenomic library preparation and sequencing. […] Sequencing data were processed first by performing adapter trimming and human-read filtering via pairwise alignments using minimap2. All reads were uploaded into qiita, and taxonomy was assigned using the Web of Life toolkit (WoLtka) implementation in Qiime2 via QIITA (read more here: https://github.com/qiyunzhu/woltka). […]

Data set [3] concerns GIO (gastrointestinal organoids from HiPSCs). Briefly: Immunocytochemistry of Zo1 (TJP1) and Ki67 in LPS-treated GIO. An excerpt:
Immunocytochemistry (ICC) and flow cytometry is a common cellular protein or antigen-detecting and visualization techniques that can recognize the target of interest or specific marker expression in cells via imaging and a series of flow histograms. The antibody is directly or indirectly linked to a reporter, such as a fluorophore or an enzyme. We performed ICC and flow cytometry as a previously established method developed by the PI.^35, 36 Briefly, for flow cytometry, cells were collected and dissociated with trypsin into a single cell and then blocked with 2% mouse serum and staining with conjugated anti-CDX2 antibody (BD Biosciences) as previously established method^11 and run to NovoCyte Flow Cytometer (Agilent Technologies, Santa Clara, CA). We have verified endodermal marker verification using CDX2 expression using flow cytometry. But for ICC, we have grown GIOs on coverslips coated or directly on the 24-well plates. Then cells were washed with PBS (phosphate-buffered saline) and fixed with 4% paraformaldehyde (PFA, Thermo Scientific). After additional washes in PBS, the cells were permeabilized in 0.1% Triton X-100 (Sigma-Aldrich), followed by blocking with 5% BSA (bovine serum albumin) in PBS containing 10% normal goat serum (NGS, Thermofisher Scientific). Next, the cells were incubated overnight with primary antibodies diluted in a blocking solution at […] with an appropriate dilution indicated by the manufacturer. The next day, the cells were washed three times with washing buffer (1×PBS containing 0.05% Tween 20 and 1% NGS). Then cells were incubated for 2 h at 25° C. with a fluorescent secondary antibody (Life Technologies). […] NGL lab-produced GIO followed a similar developmental pathway in the fetus or fetal mouse^37, including smooth muscle contractile ability determined by smoothA and β-actin,^14 GFAP, and MAP2.

For data set [4] the test system is unchanged. Kind of data set: 10-plex proinflammatory cytokine array of LPS-treated GIO media. As for the experimental part: 10-plex proinflammatory cytokine (ProC) measurement of LPS and pathogen/non-pathogenic bacterial treated GIO media (supernatant) was assayed using the Luminex multiplexing cytokine suspension array technology (Immune Monitoring Core Facility, USC, CA). Measurements of IL-2, IL-6, IL-8, IL-10, IL-13, TNF-α, INF-γ, MIP-1α and MIP-1β in the supernatant were analyzed using a MilliPlex MAP human cytokine/chemokine magnetic bead panel (MilliporeSigma, St. Louis, MO). Plates were read on a Bio-Plex 200 System using Bio-Plex Manager software version 6.0 (BioRad, Hercules, CA). Five (5) parameter logistic regression algorithms were used to determine cytokine concentrations based on provided cytokine standards and averages from triplicate-wells. Each ProC standard was measured using six known concentrations (10.0 ng, 2.0 ng, 0.4 ng, 0.08 ng, 0.016 ng, 0.0032 ng), and most regression values reached >0.99. Limit of detection: The lower limit of quantitation (LLOQ) for each ProCs are IL-13 (0.257 pg/mL), IL-1β (0.485 pg/mL), IL-2 (0.157 pg/mL), IL-8 (0.299 pg/mL), TNF-α (0.382 pg/mL), IL-6 (0.179 pg/mL), INF-γ (0.562 pg/mL), IL-10 (1.510 pg/mL), MIP-1α (0.273 pg/mL), MIP-1β ([…]). We quantified the UT-GIO, LPS-treated Sus-GIO, and Cryo-GIO with or without pathogenic and non-pathogenic bacteria. After analyzing ProC in each treatment, we conducted statistical analyses to determine the significance of the ProC status of pathogenic versus non-pathogenic bacteria in LPS-treated (Sus-GIO) and untreated GIO (UT-GIO) using GraphPad Prism (San Diego, CA). We have performed two-way ANOVA with Tukey's multiple comparisons using GraphPad Prism. *p<0.05, **p<0.01, ***p<0.001, ****p<0.0001 denotes significance.

Values joined by “and” are separate entries in the source; they are usually repeats but may differ in a detail not shown here. Identical values can stand only once. “Also recorded” adds a separate entry of the source.

Turning to lipopolysaccharide [LPS], the “Loss of cell viability (MTT)” value in data set [1] was 15-20% and ~20%. In addition, in data set [2], the “Change of bacterial community (Bacteroidales bacterium M2)” value is “causes a bloom of an unknown Bacteroides sp; also recorded: caused a bloom of unknown Bacteroides sp”. Moreover, the “Effect on Zo1 immunostaining at earlier time point” value in data set [3] (24-48 h) is recorded as “could not see any effect on Zo1”. Further, the “Ki67 (intestinal crypt cell type) expression” value in data set [3] (LPS 100 μg/ml, 96 h) is given as “decreased”. The “Effect on TJP1 (Zo1) expression” value in data set [3] (LPS 50-100 μg/ml, 96 h) is “affects GIO TJP1; also recorded: disrupts endothelial tight junction protein”. Besides, the “IL-10, IL-1β and IFNγ secretion” value in data set [4] (LPS 100 μg/mL, 48 h only) is listed as “upregulated only in 48 h time points; also recorded: upregulated when treated with only 100 μg/mL LPS for 48 h”. In data set [4] (LPS 10-100 μg/mL, 24 h and 48 h, dose and time-dependent), the “IL-2, IL-6, IL-8, TNF-α, MIP-1α and MIP-1β secretion” value is “upregulated”. Besides, the IL-13 secretion entry in data set [4] (any time point or LPS concentration) is listed as “unable to detect”.
